From US20250188088A1, “COMPOUND AND USE THEREOF” (ONQUALITY PHARMACEUTICALS CHINA LTD., priority 2022, published 2025)

Legend:
[1] = system: rash caused by monoclonal EGFR inhibitors; assay: Prevention of rash caused by monoclonal EGFR inhibitors, topical ointment, rat model; type: in vivo, SD rats
Procedure: An Experiment to Verify the Prevention of Rash Caused by Monoclonal EGFR Inhibitors with Topical Administration of Compounds of the Present Application on a Rat Animal Model After the SD rats were fed and adapted for one week (about 200 g), the rats were divided into 10 rats per group. The hair on the back of rats was gently removed with an electric razor one day before the experiment, and then an administration test was carried out. The experiments were divided into the administration group with the compound of the present application and the control group. The EGFR monoclonal antibody solution diluted with normal saline was injected via the tail vein twice a week, and the injection rate and time are shown in Table 2. After injection, the administration group applied the compound ointment of the present application on the backs (about 3 cm*3 cm) of rats every day, and the control group applied blank matrix ointment (about 0.5 g) to the backs (about 3 cm*3 cm) of rats every day. After drug application, the rats were fixed with a fixed cyclinder for 4 h; after that, the rats were released and the residual drug at the application site was wiped off with clear water. Monoclonal antibody EGFR inhibitors were injected via the tail vein twice a week, and the compound of the present application and blank ointment were applied once a day until obvious rashes appeared in the control group. […] Table 2 lists the animal experiment combinations of various monoclonal antibody EGFR inhibitors and the compound ointment of the present application, as well as the corresponding experiment results (wherein, the value in the control rate column=the number of rats whose rash is milder in the administration group than that in the control group/the total number of rats in the administration group×100%).

[2] = system: rash caused by small molecule EGFR inhibitors; assay: Treatment of rash caused by small molecule EGFR inhibitors, topical ointment, rat model; type: in vivo, SD rats
Procedure: An Experiment to Verify the Treatment of Rash Caused by Small Molecule EGFR Inhibitors with Topical Administration of Compounds of the Present Application on a Rat Animal Model After the SD rats were fed and adapted for one week (about 200 g), the rats were divided into 10 rats per group. The hair on the back of rats was gently removed with an electric razor one day before the experiment, and then an intragastric administration test was carried out. EGFR inhibitors were dissolved in a sterile aqueous solution, and diluted with PBS buffer; the amount of each gavage was not more than 2 mL, and the dosage was shown in Table 3. […] The experiments were divided into the administration group with the compound of the present application and the control group. During the treatment experiment, EGFR inhibitors were intragastrically administered continuously every day. After the gavage, the administration group applied the compound ointment of the present application on the back (about 3 cm*3 cm) of rats, and the control group applied blank matrix ointment on the back (about 3 cm*3 cm); after application, the rats were fixed with a fixed cyclinder for about 4 hours, and then the rats were released, with the residual drug at the application site wiped off with clean water, and put back into the cage. The frequency of intragastric administration of EGFR inhibitors is shown in Table 3, but the compounds of the present application and blank ointment are applied only once a day. […] Table 3 lists the animal experiment combinations of various small molecule EGFR inhibitors and the compound ointment of the present application, as well as the corresponding experiment results (wherein, the value in the control rate column=the number of rats whose rash is milder in the administration group than that in the control group/the total number of rats in the administration group×100%).

[3] = system: rash caused by monoclonal EGFR inhibitors; assay: Treatment of rash caused by monoclonal EGFR inhibitors, topical ointment, rat model; type: in vivo; conditions: SD rats
Procedure: An Experiment to Verify the Treatment of Rash Caused by Monoclonal EGFR Inhibitors with Topical Administration of Compounds of the Present Application on a Rat Animal Model After the SD rats were fed and adapted for one week (about 200 g), the rats were divided into 10 rats per group. The hair on the back of rats was gently removed with an electric razor one day before the experiment, and then an administration test was carried out. The EGFR monoclonal antibody solution diluted with normal saline was injected via tail vein twice a week, and the injection rate and time were shown in Table 4; the treatment experiment was started at the time point when rats developed a rash after continuous administration for 1-2 weeks. The experiments were divided into the administration group with the compound of the present application and the control group. During the treatment experiment, monoclonal antibody EGFR inhibitors were injected twice a week. the administration group applied the compound ointment of the present application on the back (about 3 cm*3 cm) of rats every day, and the control group applied blank matrix ointment on the back (about 3 cm*3 cm); after application, the rats were fixed with a fixed cyclinder for about 4 hours, and then the rats were released, with the residual drug at the application site wiped off with clean water, and put back into the cage. […] Table 4 lists the animal experiment combinations of monoclonal antibody EGFR inhibitors and the compound ointment of the present application, as well as the corresponding experiment results (wherein, the value in the control rate column=the number of rats whose rash is milder in the administration group than that in the control group/the total number of rats in the administration group×100%).

[4] = system: skin contact delayed-type hypersensitivity; assay: Skin contact delayed-type hypersensitivity (DNFB) response test, ear swelling, topical ointment; type: in vivo; conditions: topical to ears, DNFB DTH, Balb/c mice, compared to blank ointment
Excerpt: Therapeutic Effect of Topical Administration of Compounds of the Present Application in Skin Contact Delayed-Type Hypersensitivity Response Test in Mice Delayed-type hypersensitivity (DTH) response in mouse skin is considered to be an effective model for clinical contact dermatitis and other T cell-mediated cutaneous immune diseases, such as atopic dermatitis and psoriasis. The DTH in mice shares the common features with these cutaneous immune diseases, including immunoinfiltration with an increase of inflammatory cytokines and hyperproliferation of keratinocytes. Balb/c mice were sensitized by topical administration of the antigen 2,4-dinitrofluorobenzene (DNFB) to the shaved back of mice on Days 0 and 1. On Day 5, the thickness of the ears was measured using an engineering micrometer. The measurement result was recorded and used as a baseline. The animals were then challenged with a total of 20 μL of DNFB (10 μL for the internal pinna and 10 μL for the external pinna) topically dosed to both ears at a concentration of 0.2%. The ears were measured again 24-72 hours after challenge. The compound ointment of the present application was applied topically to the ears of the animals throughout the allergic and challenge periods (Days −1˜7) or before or throughout the challenge period (generally Days 4˜7). The therapeutic effect was expressed by a reduction in ear swelling compared to that of the blank ointment. The compound causing a reduction of 20% or more was considered effective. Table 5 lists the skin contact delayed-type hypersensitivity experiment results in mice treated with the compound of the present application.

[5] = Cetuximab 100 mg/kg twice a week via tail vein, ointment 0.2 wt% once a day, 10 days
[6] = Panitumumab 10 mg/kg twice a week via tail vein, ointment 5.0 wt% once a day, 14 days
[7] = EAI045 80 mg/kg once a day, 8 dosing modelling days, ointment 1.0 wt% once a day
[8] = EAI045 80 mg/kg once a day, 8 dosing modelling days, ointment 10.0 wt% once a day
[9] = Osimertinib 60 mg/kg twice a day, 7 dosing modelling days, ointment 0.5 wt% once a day
[10] = Osimertinib 60 mg/kg twice a day, 7 dosing modelling days, ointment 5.0 wt% once a day
[11] = Cetuximab 102 mg/kg twice a week via tail vein, ointment 5.0 wt%, 10 days of drug application
[12] = Afatinib 40 mg/kg once a day, 6 dosing modelling days, ointment 5.0 wt% once a day
[13] = EAI045 80 mg/kg once a day, 8 dosing modelling days, ointment 5.0 wt% once a day
[14] = Osimertinib 60 mg/kg twice a day, 7 dosing modelling days, ointment 1.0 wt% once a day

SMILES: C[C@@H]1CN(C(=O)CC#N)[C@@]12CCN(c1ncnc3c1ccn3C(=O)N(C)CCOC(=O)C1CCCCC1)C2 [Compound A28]
- Control Rate [1, 5]: 30%
- Control Rate ([1]; Cetuximab 100 mg/kg twice a week via tail vein, ointment 5.0 wt% once a day, 10 days): 70%
- Control Rate ([1]; Panitumumab 10 mg/kg twice a week via tail vein, ointment 0.2 wt% once a day, 14 days): 45%
- Control Rate [1, 6]: 100%
- Control Rate ([2]; BPI-7711 60 mg/kg once a day, 6 dosing modelling days, ointment 3.0 wt% once a day): 80%
- Control Rate ([2]; Dacomitinib 10 mg/kg once a day, 5 dosing modelling days, ointment 0.2 wt% once a day): 30%
- Control Rate ([2]; Dacomitinib 10 mg/kg once a day, 5 dosing modelling days, ointment 2.0 wt% once a day): 60%
- Control Rate ([2]; Dacomitinib 10 mg/kg once a day, 5 dosing modelling days, ointment 5.0 wt% once a day): 80%
- Control Rate ([2]; Dacomitinib 10 mg/kg once a day, 5 dosing modelling days, ointment 10.0 wt% once a day): 60%
- Control Rate [2, 7]: 40%
- Control Rate [2, 8]: 100%
- Control Rate ([2]; Gefitinib 80 mg/kg twice a day, 10 dosing modelling days, ointment 1.0 wt% once a day): 30%
- Control Rate ([2]; Gefitinib 80 mg/kg twice a day, 10 dosing modelling days, ointment 5.0 wt% once a day): 30%
- Control Rate ([2]; Larotinib 20 mg/kg once a day, 6 dosing modelling days, ointment 3.0 wt% once a day): 40%
- Control Rate [2, 9]: 20%
- Control Rate [2, 10]: 60%
- Control Rate ([3]; Cetuximab 102 mg/kg twice a week via tail vein, ointment 0.3 wt%, 10 days of drug application): 40%
- Control Rate [3, 11]: 70%
- Control Rate ([3]; Panitumumab 6 mg/kg twice a week via tail vein, ointment 2.0 wt%, 8 days of drug application): 60%
- Control Rate ([3]; Panitumumab 6 mg/kg twice a week via tail vein, ointment 10.0 wt%, 8 days of drug application): 100%

SMILES: CN(CCOC(=O)C1CCCCC1)C(=O)n1ccc2c(-c3cnn(C4(CC#N)CN(C5CCN(C(=O)c6ccnc(C(F)(F)F)c6F)CC5)C4)c3)ncnc21 [Compound A36]
- Control Rate ([2]; Afatinib 40 mg/kg once a day, 6 dosing modelling days, ointment 0.5 wt% once a day): 20%
- Control Rate [2, 12]: 60%
- Control Rate ([2]; BPI-7711 60 mg/kg once a day, 6 dosing modelling days, ointment 5.0 wt% once a day): 30%
- Control Rate ([2]; EAI045 80 mg/kg once a day, 8 dosing modelling days, ointment 0.5 wt% once a day): 20%
- Control Rate [2, 13]: 40%
- Control Rate ([2]; Larotinib 20 mg/kg once a day, 6 dosing modelling days, ointment 5.0 wt% once a day): 60%
- Control Rate [2, 14]: 30%
- Control Rate ([2]; Osimertinib 60 mg/kg twice a day, 7 dosing modelling days, ointment 10.0 wt% once a day): 50%
- Reduction Rate of Ear Swelling ([4]; ointment 1.0 wt%): 29%
- Reduction Rate of Ear Swelling ([4]; ointment 5.0 wt%): 34%

SMILES: C[C@@H]1CN(C(=O)CC#N)[C@@]12CCN(c1ncnc3c1ccn3C(=O)N(C)CCOC(=O)C1CC1)C2 [Compound A27]
- Control Rate [1, 5]: 20%
- Control Rate ([1]; Cetuximab 100 mg/kg twice a week via tail vein, ointment 3.0 wt% once a day, 10 days): 40%
- Control Rate ([1]; Panitumumab 10 mg/kg twice a week via tail vein, ointment 1.0 wt% once a day, 14 days): 45%
- Control Rate [1, 6]: 70%
- Control Rate [2, 7]: 60%
- Control Rate ([2]; EAI045 80 mg/kg once a day, 8 dosing modelling days, ointment 3.0 wt% once a day): 80%
- Control Rate ([2]; Osimertinib 60 mg/kg twice a day, 7 dosing modelling days, ointment 0.2 wt% once a day): 40%
- Control Rate ([2]; Osimertinib 60 mg/kg twice a day, 7 dosing modelling days, ointment 4.0 wt% once a day): 100%
- Control Rate ([3]; Cetuximab 102 mg/kg twice a week via tail vein, ointment 1.0 wt%, 10 days of drug application): 30%
- Control Rate [3, 11]: 80%
- Control Rate ([3]; Panitumumab 6 mg/kg twice a week via tail vein, ointment 0.1 wt%, 8 days of drug application): 60%
- Control Rate ([3]; Panitumumab 6 mg/kg twice a week via tail vein, ointment 3.0 wt%, 8 days of drug application): 90%

SMILES: C[C@@H]1CN(C(=O)CC#N)[C@@]12CCN(c1ncnc3c1ccn3C(=O)N(C)CCOC(=O)c1ccn[nH]1)C2 [Compound A31]
- Control Rate ([2]; Afatinib 40 mg/kg once a day, 6 dosing modelling days, ointment 0.1 wt% once a day): 10%
- Control Rate ([2]; Afatinib 40 mg/kg once a day, 6 dosing modelling days, ointment 1.0 wt% once a day): 60%
- Control Rate ([2]; Afatinib 40 mg/kg once a day, 6 dosing modelling days, ointment 3.0 wt% once a day): 70%
- Control Rate [2, 12]: 90%
- Control Rate ([2]; Afatinib 40 mg/kg once a day, 6 dosing modelling days, ointment 10.0 wt% once a day): 90%
- Control Rate ([2]; EAI045 80 mg/kg once a day, 8 dosing modelling days, ointment 0.1 wt% once a day): 20%
- Control Rate [2, 13]: 70%
- Control Rate [2, 8]: 90%
- Control Rate ([2]; Gefitinib 80 mg/kg twice a day, 10 dosing modelling days, ointment 0.3 wt% once a day): 20%
- Control Rate ([2]; Gefitinib 80 mg/kg twice a day, 10 dosing modelling days, ointment 3.0 wt% once a day): 40%
- Control Rate ([2]; Gefitinib 80 mg/kg twice a day, 10 dosing modelling days, ointment 10.0 wt% once a day): 90%
- Control Rate [2, 9]: 40%
- Control Rate [2, 14]: 60%
- Control Rate [2, 10]: 70%
- Reduction Rate of Ear Swelling ([4]; ointment 1.0 wt%): 16%
- Reduction Rate of Ear Swelling ([4]; ointment 5.0 wt%): 28%
